ChEMBL document CHEMBL1129675, “New directions in antibacterial research” (1996)
In brackets after ≈: the same amount, converted by molar mass. Activity calls are given as the source filed them. No cut-off for these calls is given here. Starred links: 1 amine or outer side, 2 acyl side, 3 side chain; linkers in the order of their positions; H or OH if unused. Positions of bridges follow the written chain, without caps; N, C: chain ends. Non-standard residues stand in square brackets, D forms with d. Residues, ends and D or L forms follow the SMILES beside them. X1 = O=C([C@@H](N[*:1])c1ccc(O[C@H]2OC(CO)[C@@H](O)[C@@H](O)[C@@H]2O[C@H]2O[C@@H](CO)[C@@H](O)[C@H](O)[C@H]2O)cc1)[*:2]; X4 = CC(C)CC/C=C\C=C/C(=O)NC(CC(N)=O)C(=O)CC(C(=O)[*:1])C(O[*:2])C(N)=O; X2 = CC(C)C/C=C\C=C/C(=O)NC(CC(N)=O)C(=O)CC(C(=O)[*:1])C(O[*:2])C(N)=O; X3 = CCC/C=C\C=C/C(=O)NC(CC(N)=O)C(=O)CC(C(=O)[*:1])C(O[*:2])C(N)=O; Hpg(3-Cl) = N[C@H](C(=O)O)c1ccc(O)c(Cl)c1; Hpg = N[C@H](C(=O)O)c1ccc(O)cc1; Orn = NCCC[C@H](N)C(=O)O

Legend:
Bacteroides fragilis = test: Inhibitory activity against Bacteroides fragilis; format: functional
Bacteria = test: Inhibitory activity against Corynebacterium; format: functional
Enterococcus faecium [1] = test: Inhibitory activity against Enterococcus faecium; format: functional
Haemophilus influenzae = test: Inhibitory activity against Haemophilus influenzae; format: functional
Moraxella catarrhalis = test: Inhibitory activity against Moraxella catarrhalis; format: functional
[2] = test system: Staphylococcus epidermidis; test: Inhibitory activity against methicillin-resistant Staphylococcus epidermidis (MRSE); format: functional
[3] = test system: Staphylococcus epidermidis; test: Inhibitory activity against methicillin-sensitive Staphylococcus epidermidis (MSSE); format: functional
Staphylococcus aureus [4] = test: Inhibitory activity against MRSA; format: functional
Staphylococcus aureus [5] = test: Inhibitory activity against MSSA; format: functional
Streptococcus pyogenes = test: Inhibitory activity against Streptococcus pyogenes; format: functional
Streptococcus pneumoniae = test: Inhibitory activity against Streptococcus pneumoniae; format: functional
Enterococcus faecalis = test: Inhibitory activity against VanA strain of E. faecalis; Range is 0.03-2 ug/mL; format: functional
Enterococcus faecium [6] = test: Inhibitory activity against VanA strain of E. faecium; Range is 0.03-2 ug/mL; format: functional
[7] = Inhibitory activity against VanB enterococci; Range is 0.016-1 ug/mL; format: functional
Pseudomonas aeruginosa = test: Antibacterial activity against Pseudomonas aeruginosa was determined; Active; format: functional, organism-based
Enterococcus = test: Inhibitory activity against Vancomycin resistant enterococci; format: functional
[8] = Inhibitory activity against Lactobacillus species.; format: functional; conditions: Bacteria
[9] = Inhibitory activity against Leuconostoc species.; format: functional
[10] = Inhibitory activity against Pediococcus species.; format: functional
[11] = Inhibitory activity against many clinical relevent pathogen; Range is 5-50 ug/mL; format: functional
Staphylococcus aureus [12] = test: Antibacterial activity against MRSA was determined; Active; format: functional, organism-based

## CC(=O)NC[C@H]1CN(c2ccc(N3CCOCC3)c(F)c2)C(=O)O1 [LINEZOLID]
Bacteroides fragilis
  MIC90: 4 µg/mL (≈ 11.9 µM)
Bacteria
  MIC90: 0.5 µg/mL (≈ 1.48 µM)
Enterococcus faecium [1]
  MIC90: 4 µg/mL (≈ 11.9 µM)
Haemophilus influenzae
  MIC90: 16 µg/mL (≈ 47.4 µM)
Moraxella catarrhalis
  MIC90: 4 µg/mL (≈ 11.9 µM)
[2]
  MIC90: 2 µg/mL (≈ 5.93 µM)
[3]
  MIC90: 2 µg/mL (≈ 5.93 µM)
Staphylococcus aureus [4]
  MIC90: 4 µg/mL (≈ 11.9 µM)
Staphylococcus aureus [5]
  MIC90: 4 µg/mL (≈ 11.9 µM)
Streptococcus pyogenes
  MIC90: 2 µg/mL (≈ 5.93 µM)
Streptococcus pneumoniae
  MIC90: 1 µg/mL (≈ 2.96 µM)

## CN[C@H](CC(C)C)C(=O)N[C@H]1C(=O)N[C@@H](CC(N)=O)C(=O)N[C@H]2C(=O)N[C@H]3C(=O)N[C@](C)(C(=O)N[C@H](C(=O)O)c4cc(O)cc(O)c4-c4cc3ccc4O)[C@H](C[C@H]3C[C@](C)(N)[C@@H](O)[C@H](C)O3)c3ccc(c(Cl)c3)Oc3cc2cc(c3O[C@@H]2O[C@H](CO)[C@@H](O)[C@H](O)[C@H]2O[C@@H]2C[C@](C)(NCc3ccc(-c4ccc(Cl)cc4)cc3)[C@@H](O)[C@H](C)O2)Oc2ccc(cc2Cl)[C@H]1O
Enterococcus faecalis
  MIC: 0.03 µg/mL (≈ 0.0166 µM)
Enterococcus faecium [6]
  MIC: 0.03 µg/mL (≈ 0.0166 µM)
Staphylococcus aureus [4]
  MIC: ≤ 0.5 µg/mL
Streptococcus pyogenes
  MIC: < 0.06 µg/mL
Streptococcus pneumoniae
  MIC: < 0.008 µg/mL
[7]
  MIC: 0.016 µg/mL (≈ 0.00886 µM)

## CN[C@H](CC(C)C)C(=O)N[C@H]1C(=O)N[C@@H](CC(N)=O)C(=O)N[C@H]2C(=O)N[C@H]3C(=O)N[C@](C)(C(=O)N[C@H](C(=O)O)c4cc(O)cc(O)c4-c4cc3ccc4O)[C@H](C[C@H]3C[C@](C)(N)[C@@H](O)[C@H](C)O3)c3ccc(c(Cl)c3)Oc3cc2cc(c3O[C@@H]2O[C@H](CO)[C@@H](O)[C@H](O)[C@H]2O[C@@H]2C[C@](C)(NCc3ccc(Oc4ccccc4)cc3)[C@@H](O)[C@H](C)O2)Oc2ccc(cc2Cl)[C@H]1O
Enterococcus faecalis
  MIC: 0.03 µg/mL (≈ 0.0168 µM)
Enterococcus faecium [6]
  MIC: 0.03 µg/mL (≈ 0.0168 µM)
Staphylococcus aureus [4]
  MIC: ≤ 0.5 µg/mL
Streptococcus pyogenes
  MIC: < 0.06 µg/mL
Streptococcus pneumoniae
  MIC: < 0.008 µg/mL
[7]
  MIC: 0.016 µg/mL (≈ 0.00895 µM)

## CCCCC1CCC(CN[C@@]2(C)C[C@@H](O[C@H]3[C@H](Oc4c5cc6cc4Oc4ccc(cc4Cl)[C@@H](C[C@H]4C[C@](C)(N)[C@@H](O)[C@H](C)O4)[C@]4(C)NC(=O)[C@H](NC(=O)[C@@H]6NC(=O)[C@H](CC(N)=O)NC(=O)[C@H](NC(=O)[C@@H](CC(C)C)NC)[C@H](O)c6ccc(c(Cl)c6)O5)c5ccc(O)c(c5)-c5c(O)cc(O)cc5[C@@H](C(=O)O)NC4=O)O[C@H](CO)[C@@H](O)[C@@H]3O)O[C@@H](C)[C@@H]2O)CC1 (stereo not given in full)
Enterococcus faecalis
  MIC: 0.03 µg/mL (≈ 0.0171 µM)
Enterococcus faecium [6]
  MIC: 0.03 µg/mL (≈ 0.0171 µM)
Staphylococcus aureus [4]
  MIC: ≤ 0.5 µg/mL
Streptococcus pyogenes
  MIC: < 0.06 µg/mL
Streptococcus pneumoniae
  MIC: < 0.008 µg/mL
[7]
  MIC: 0.016 µg/mL (≈ 0.00911 µM)

## C[C@@H]1[C@H](NC(=O)/C(=N\OCC(=O)NNC(=O)c2nc3cc(O)c(O)cc3nc2C(=O)O)c2csc(N)n2)C(=O)N1S(=O)(=O)O
Pseudomonas aeruginosa
  Activity: Active

## CN(C)[C@@H]1C(=O)C(C(N)=O)=C(O)[C@@]2(O)C(=O)C3=C(O)c4c(O)cccc4[C@H](CSCCCCl)C3[C@H](O)C12 (stereo not given in full)
Staphylococcus aureus [4]
  MIC90: 2 µg/mL (≈ 3.62 µM)

## CC(C)C/C=C\C=C/C(=O)NC(CC(N)=O)C(=O)CC1C(=O)N[C@@H](c2ccc(O)cc2)C(=O)N[C@@H](CCCN)C(=O)N[C@@H]([C@@H](C)O)C(=O)N[C@@H](c2ccc(O)cc2)C(=O)N[C@@H](c2ccc(O)cc2)C(=O)N[C@@H]([C@@H](C)O)C(=O)N[C@@H](Cc2ccccc2)C(=O)N[C@@H](CCCN)C(=O)N[C@@H](c2ccc(O[C@H]3OC(CO)[C@@H](O)[C@@H](O)[C@@H]3O[C@H]3O[C@@H](CO)[C@@H](O)[C@H](O)[C@H]3O)cc2)C(=O)N[C@@H]([C@@H](C)O)C(=O)N[C@@H](c2ccc(O)cc2)C(=O)NCC(=O)N[C@@H](CC(C)C)C(=O)N[C@@H](C)C(=O)N[C@@H](c2ccc(O)c(Cl)c2)C(=O)OC1C(N)=O (stereo not given in full) ([Hpg][Orn]T[Hpg][Hpg]TF[Orn][X1]T[Hpg]GLA[Hpg(3-Cl)]; linker N-C via X2)
Enterococcus
  MIC90: 0.5 µg/mL (≈ 0.196 µM)
[8]
  MIC90: ≤ 0.25 µg/mL
[9]
  MIC90: ≤ 0.25 µg/mL
[10]
  MIC90: ≤ 0.25 µg/mL

## CCC/C=C\C=C/C(=O)NC(CC(N)=O)C(=O)CC1C(=O)N[C@@H](c2ccc(O)cc2)C(=O)N[C@@H](CCCN)C(=O)N[C@@H]([C@@H](C)O)C(=O)N[C@@H](c2ccc(O)cc2)C(=O)N[C@@H](c2ccc(O)cc2)C(=O)N[C@@H]([C@@H](C)O)C(=O)N[C@@H](Cc2ccccc2)C(=O)N[C@@H](CCCN)C(=O)N[C@@H](c2ccc(O[C@H]3OC(CO)[C@@H](O)[C@@H](O)[C@@H]3O[C@H]3O[C@@H](CO)[C@@H](O)[C@H](O)[C@H]3O)cc2)C(=O)N[C@@H]([C@@H](C)O)C(=O)N[C@@H](c2ccc(O)cc2)C(=O)NCC(=O)N[C@@H](CC(C)C)C(=O)N[C@@H](C)C(=O)N[C@@H](c2ccc(O)c(Cl)c2)C(=O)OC1C(N)=O (stereo not given in full) ([Hpg][Orn]T[Hpg][Hpg]TF[Orn][X1]T[Hpg]GLA[Hpg(3-Cl)]; linker N-C via X3)
Enterococcus
  MIC90: 0.5 µg/mL (≈ 0.197 µM)
[8]
  MIC90: ≤ 0.25 µg/mL
[9]
  MIC90: ≤ 0.25 µg/mL
[10]
  MIC90: ≤ 0.25 µg/mL

## C[C@@H]1[C@H](NC(=O)/C(=N\OCc2cc3cc(O)c(O)cc3cc2C(=O)O)c2csc(N)n2)C(=O)N1S(=O)(=O)O
Pseudomonas aeruginosa
  Activity: Active

## CC[C@H](C)[C@H](NC(=O)CN)C(=O)NCC(=O)N[C@@H](CCCCN)C(=O)N[C@@H](Cc1ccccc1)C(=O)N[C@@H](CC(C)C)C(=O)N[C@@H](Cc1cnc[nH]1)C(=O)N[C@@H](CO)C(=O)N[C@@H](C)C(=O)NCC(=O)N[C@@H](CCCCN)C(=O)N[C@@H](Cc1ccccc1)C(=O)NCC(=O)N[C@@H](CCCCN)C(=O)N[C@@H](C)C(=O)N[C@@H](Cc1ccccc1)C(=O)N[C@H](C(=O)NCC(=O)N[C@@H](CCC(=O)O)C(=O)N[C@H](C(=O)N[C@@H](CCSC)C(=O)N[C@@H](CCCCN)C(=O)N[C@@H](CO)C(=O)O)[C@@H](C)CC)C(C)C [MAGAININ I] (H-GIGKFLHSAGKFGKAFVGEIMKS-OH)
[11]
  MIC: 5 µg/mL (≈ 2.07 µM)

## Cc1nc(SCC2=C(C(=O)O)N3C(=O)[C@@H](NC(=O)/C(=N\OCc4cc(=O)c(O)cn4O)c4csc(N)n4)[C@H]3CS2)sc1C(=O)O
Pseudomonas aeruginosa
  Activity: Active

## CC(=O)NC[C@H]1CN(c2ccc(N3CCN(C(=O)CO)CC3)c(F)c2)C(=O)O1 [EPEREZOLID]
Bacteroides fragilis
  MIC90: 16 µg/mL (≈ 40.6 µM)
Bacteria
  MIC90: 0.5 µg/mL (≈ 1.27 µM)
Enterococcus faecium [1]
  MIC90: 2 µg/mL (≈ 5.07 µM)
Haemophilus influenzae
  MIC90: 16 µg/mL (≈ 40.6 µM)
Moraxella catarrhalis
  MIC90: 4 µg/mL (≈ 10.1 µM)
[2]
  MIC90: 1 µg/mL (≈ 2.54 µM)
[3]
  MIC90: 1 µg/mL (≈ 2.54 µM)
Staphylococcus aureus [4]
  MIC90: 4 µg/mL (≈ 10.1 µM)
Staphylococcus aureus [5]
  MIC90: 4 µg/mL (≈ 10.1 µM)
Streptococcus pyogenes
  MIC90: 1 µg/mL (≈ 2.54 µM)
Streptococcus pneumoniae
  MIC90: 0.5 µg/mL (≈ 1.27 µM)

## CN(C)c1ccc(O)c2c1C[C@H]1C[C@H]3[C@H](N(C)C)C(O)=C(C(N)=O)C(=O)[C@@]3(O)C(O)=C1C2=O [MINOCYCLINE]
Staphylococcus aureus [4]
  MIC90: 16 µg/mL (≈ 35 µM)

## C[C@@H](O)[C@H]1C(=O)N2C(C(=O)O)=C(SCCNC=N)C[C@H]12
Pseudomonas aeruginosa
  Activity: Active

## CC(C)CC/C=C\C=C/C(=O)NC(CC(N)=O)C(=O)CC1C(=O)N[C@@H](c2ccc(O)cc2)C(=O)N[C@@H](CCCN)C(=O)N[C@@H]([C@@H](C)O)C(=O)N[C@@H](c2ccc(O)cc2)C(=O)N[C@@H](c2ccc(O)cc2)C(=O)N[C@@H]([C@@H](C)O)C(=O)N[C@@H](Cc2ccccc2)C(=O)N[C@@H](CCCN)C(=O)N[C@@H](c2ccc(O[C@H]3OC(CO)[C@@H](O)[C@@H](O)[C@@H]3O[C@H]3O[C@@H](CO)[C@@H](O)[C@H](O)[C@H]3O)cc2)C(=O)N[C@@H]([C@@H](C)O)C(=O)N[C@@H](c2ccc(O)cc2)C(=O)NCC(=O)N[C@@H](CC(C)C)C(=O)N[C@@H](C)C(=O)N[C@@H](c2ccc(O)c(Cl)c2)C(=O)OC1C(N)=O (stereo not given in full) ([Hpg][Orn]T[Hpg][Hpg]TF[Orn][X1]T[Hpg]GLA[Hpg(3-Cl)]; linker N-C via X4)
Enterococcus
  MIC90: 0.5 µg/mL (≈ 0.195 µM)
[8]
  MIC90: ≤ 0.25 µg/mL
[9]
  MIC90: ≤ 0.25 µg/mL
[10]
  MIC90: ≤ 0.25 µg/mL

## C[C@H](O)[C@H]1C(=O)N2C(C(=O)[O-])=C(Sc3nc(-c4cc[n+](CC(N)=O)cc4)cs3)[C@H](C)[C@H]12
Staphylococcus aureus [12]
  Activity: Active
